Data taken from patent publication US20240263146A1, “HUMAN NSCLC CELL LINES AND USES THEREOF” (SHANGHAI LIDE BIOTECH CO., LTD., priority 2020, published 2024).

Experiments:
Experiment in all cases: cells
[1] = system: LD1-0006-215676 (EGFR L858R/T790M) cell line; conditions: Homo sapiens, 144 h
Method: (§1) The cell lines of the present disclosure (i.e., LD1-0025-200636; LD1-0025-200694; LD1-0006-215676; and LD1-0025-200717) were seeded at 2×10^2 cells/well to 96 well round bottom ultra low attachment plate. The drugs were added into the cell lines and the cells were cultured in 37° C. and 5% CO2 for 6 days. The ATP amount was measured using CellTiter-Glo. The Inhibition rate corresponding to the concentration of the drugs was calculated. The equation for calculating the inhibition rate is as follows: […]
(§2) Inhibition curve was graphed by XLfit(IDBS) and IC50 was calculated.

[2] = system: LD1-0025-200636 (EGFR WT) cell line; conditions: Homo sapiens, 144 h
Method: as §1, §2

[3] = system: LD1-0025-200694 (EGFR L858R) cell line; conditions: Homo sapiens, 144 h
Method: as §1, §2

[4] = system: LD1-0025-200717 (EGFR 19del, T790M & C797S mutant) cell line; conditions: Homo sapiens, LD1-0025-200717, 144 h
Method: as §1, §2

## C=CC(=O)Nc1cc(Nc2nccc(-c3cn(C)c4ccccc34)n2)c(OC)cc1N(C)CCN(C)C [AZD9291, Osimertinib]
[1]
  IC50: 30 nM
[2]
  IC50: 2520 nM
[3]
  IC50: 2670 nM
[4]
  IC50: 2010 nM
